From patent US9540343B2 (Gilead Sciences, Inc., priority 2011, dated 2017)

Legend:
in vitro = conditions: human, uninfected MT-4 cells, CC50 (nM), same protocol as Test A, CellTiter-Glo
Protocol: For the antiviral assay, 40 μL of 1× test concentration of 3-fold serially diluted compound in culture medium with 10% FBS was added to each well of a 384-well plate (10 concentrations) in quadruplicate. MT-4 cells were next mixed with HIV-IIIb at an m.o.i of 0.003 for 1 hour, after which time 35 μL of virus/cell mixture (2000 cells) was immediately added to each well containing 40 μL of diluted compound. The plates were then incubated at 37° C. for 5 days. After 5 days of incubation, 25 μl of 2× concentrated CellTiter-Glo™ Reagent (catalog #G7571, Promega Biosciences, Inc., Madison, Wis.) was added to each well containing MT-4 cells. Cell lysis was carried out by incubating at room temperature for 10 min and then chemiluminescence was read.
Test B: Cytotoxicity Assay
Compound cytotoxicity and the corresponding CC50 values was determined using the same protocol as described in the antiviral assay (Test A) except that uninfected cells were used.

HIV-IIIb = test: Test A: Antiviral assay in MT4 cells; type: cell-based, HIV-1; conditions: Human immunodeficiency virus 1, IIIB, MT4, 120 h, read-out: % inhibition at 2 μM, percent inhibition of virus-induced cell killing, from dose response curve at 2 uM drug; MT-4 cells infected with HIV-IIIb, 5 days, CellTiter-Glo

Structure (SMILES) | CC50 at 5 days (in vitro) | inhibition at 2 µM (HIV-IIIb)
O=C(Cc1c[nH]c2ccc(F)cc12)N[C@@H](Cc1cc(F)cc(F)c1)c1ncccc1-c1ccccc1Cl [Example 395, (S)—N-(1-(3-(2-chlorophenyl)pyridin-2-yl)-2-(3,5-difluorophenyl)ethyl)-2-(5-fluoro-1H-indol-3-yl)acetamide] | 11600 nM | 41%
NC(=O)c1cc(-c2cccnc2[C@H](Cc2cc(F)cc(F)c2)NC(=O)Cn2nc(C(F)(F)F)c3c2CC(F)(F)C3)ccc1F [Example 239, (S)-5-(2-(1-(2-(5,5-difluoro-3-(trifluoromethyl)-5,6-dihydrocyclopenta[c]pyrazol-1(4H)-yl)acetamido)-2-(3,5-difluorophenyl)ethyl)pyridin-3-yl)-2-fluorobenzamide] | 19400 nM | 18%
Nc1ncc(-c2cccnc2[C@H](Cc2cc(F)cc(F)c2)NC(=O)Cn2nc(C(F)F)c3c2C(F)(F)CCC3(F)F)cc1C(F)(F)F [Example 371, (S)—N-(1-(6′-amino-5′-(trifluoromethyl)-3,3′-bipyridin-2-yl)-2-(3,5-difluorophenyl)ethyl)-2-(3-(difluoromethyl)-4,4,7,7-tetrafluoro-4,5,6,7-tetrahydro-1H-indazo-1-yl)acetamide] | 7590 nM | 83%
COc1cccc(CC(=O)N[C@@H](Cc2cc(F)cc(F)c2)c2ncccc2-c2cccc(C(N)=O)c2)c1 [Example 601, (S)-3-(2-(2-(3,5-difluorophenyl)-1-(2-(3-methoxyphenyl)acetamido)ethyl)pyridin-3-yl)benzamide] | 41900 nM | 22%
CS(=O)(=O)c1cccc(-c2cccnc2[C@H](Cc2cc(F)cc(F)c2)NC(=O)Cn2nc(C(F)(F)F)c3c2CCCC3)c1 [Example 57B, (S)—N-(2-(3,5-difluorophenyl)-1-(3-(3-(methylsulfonyl)phenyl)pyridin-2-yl)ethyl)-2-(3-(trifluoromethyl)-4,5,6,7-tetrahydro-1H-indazol-1-yl)acetamide] | 13300 nM | 98%
O=C(Cn1nc(C(F)F)c2c1C(F)(F)CCC2(F)F)N[C@@H](Cc1cc(F)cc(F)c1)c1ncccc1-c1ccc2cc[nH]c(=O)c2c1 [Example 559D, (S)-2-(3-(difluoromethyl)-4,4,7,7-tetrafluoro-4,5,6,7-tetrahydro-1H-indazol-1-yl)-N-(2-(3,5-difluorophenyl)-1-(3-(1-oxo-1,2-dihydroisoquinolin-7-yl)pyridin-2-yl)ethyl)acetamide] | 23100 nM | 96%
Cc1ccccc1-c1cccnc1[C@@H](Cc1ccccc1)NC(=O)Cn1nc(C(F)(F)F)c2c1CCCC2 [Example 16, (R)—N-(2-phenyl-1-(3-o-tolylpyridin-2-yl)ethyl)-2-(3-(trifluoromethyl)-4,5,6,7-tetrahydro-1H-indazol-1-yl)acetamide] | 14000 nM | 0%
NC(=O)c1cc(-c2cccnc2[C@H](Cc2cc(F)cc(F)c2)NC(=O)Cn2nc3c(c2C(F)F)C2CC2C3O)ccc1F (stereo partly drawn) [Example 243, 5-(2-((1S)-1-(2-(3-(difluoromethyl)-5-hydroxy-3b,4,4a,5-tetrahydro-2H-cyclopropa[3,4]cyclopenta[1,2-c]pyrazol-2-yl)acetamido)-2-(3,5-difluorophenyl)ethyl)pyridin-3-yl)-2-fluorobenzamide] | > 53200 nM | 33%
COC1CN(C(=O)c2cc(C(C)C)n(CC(=O)N[C@@H](Cc3cc(F)cc(F)c3)c3ncccc3-c3ccc(F)c(C(N)=O)c3)n2)C1 [Example 576B, (S)-5-(2-(2-(3,5-difluorophenyl)-1-(2-(5-isopropyl-3-(3-methoxyazetidine-1-carbonyl)-1H-pyrazol-1-yl)acetamido)ethyl)pyridin-3-yl)-2-fluorobenzamide] | > 53200 nM | 2%
CC(C)Cc1ccc(-c2cccnc2[C@H](Cc2cc(F)cc(F)c2)NC(=O)Cc2c[nH]c3ccc(F)cc23)cc1 [Example 103, (S)—N-(2-(3,5-difluorophenyl)-1-(3-(4-isobutylphenyl)pyridin-2-yl)ethyl)-2-(5-fluoro-1H-indol-3-yl)acetamide] | 5170 nM | 0%
O=C(Cn1nc(C(F)F)c2c1C1CC1CC2)NC(Cc1cc(F)cc(F)c1)c1ncncc1-c1cnc2[nH]ccc2c1 (stereo not shown) [Example 299D, N-(1-(5-(1H-pyrrolo[2,3-b]pyridin-5-yl)pyrimidin-4-yl)-2-(3,5-difluorophenyl)ethyl)-2-(3-(difluoromethyl)-5,5a,6,6a-tetrahydrocyclopropa[g]indazol-1(4H)-yl)acetamide] | 19500 nM | 100%
NC(=O)c1cc(-c2cccnc2[C@H](Cc2cc(F)cc(F)c2)NC(=O)Cn2nc(C(N)=O)c3c2CC2CC32)ccc1F (stereo partly drawn) [Example 209, 1-(2-(((S)-1-(3-(3-carbamoyl-4-fluorophenyl)pyridin-2-yl)-2-(3,5-difluorophenyl)ethyl)amino)-2-oxoethyl)-3b,4,4a,5-tetrahydro-1H-cyclopropa[3,4]cyclopenta[1,2-c]pyrazole-3-carboxamide] | > 53200 nM | 51%
CCC(C(=O)N[C@@H](Cc1cc(F)cc(F)c1)c1ncccc1-c1ccc(F)c(C(N)=O)c1)n1cnc2cc(C)c(C)cc21 (stereo partly drawn) [Example 587C, 5-(2-((1S)-2-(3,5-difluorophenyl)-1-(2-(5,6-dimethyl-1H-benzo[d]imidazol-1-yl)butanamido)ethyl)pyridin-3-yl)-2-fluorobenzamide] | 23000 nM | 93%
Cc1cc2ncn(CC(=O)N[C@@H](Cc3cc(F)cc(F)c3)c3ncccc3-c3cccc(S(=O)(=O)NC4CC4)c3)c2cc1C [Example 353B, (S)—N-(1-(3-(3-(N-cyclopropylsulfamoyl)phenyl)pyridin-2-yl)-2-(3,5-difluorophenyl)ethyl)-2-(5,6-dimethyl-1H-benzo[d]imidazol-1-yl)acetamide] | 12700 nM | 110%
COC1CN(C(=O)Cc2c(C)n(CC(=O)N[C@@H](Cc3cc(F)cc(F)c3)c3ncccc3-c3ccc(F)c(C(N)=O)c3)c3ccccc23)C1 [Example 579D, (S)-5-(2-(2-(3,5-difluorophenyl)-1-(2-(3-(2-(3-methoxyazetidin-1-yl)-2-oxoethyl)-2-methyl-1H-indol-1-yl)acetamido)ethyl)pyridin-3-yl)-2-fluorobenzamide] | > 53200 nM | 18%
Cc1ccccc1-c1cccnc1C(Cc1cc(F)cc(F)c1)NC(=O)Cc1c[nH]c2ccc(O)cc12 (stereo not shown) [Example 3, N-(2-(3,5-difluorophenyl)-1-(3-o-tolylpyridin-2-yl)ethyl)-2-(5-hydroxy-1H-indol-3-yl)acetamide] | 21900 nM | 40%
NC(=O)c1cc(-c2cccnc2[C@H](Cc2cc(F)cc(F)c2)NC(=O)Cn2nc(C(F)(F)F)c3c2CCC3=O)ccc1F [Example 492B, (S)-5-(2-(2-(3,5-difluorophenyl)-1-(2-(4-oxo-3-(trifluoromethyl)-5,6-dihydrocyclopenta[c]pyrazol-1(4H)-yl)acetamido)ethyl)pyridin-3-yl)-2-fluorobenzamide] | > 53200 nM | 2%
NC(=O)c1cc(-c2cccnc2[C@H](Cc2cc(F)cc(F)c2)NC(=O)Cn2cc(C(F)(F)F)nc2CO)ccc1F [Example 437, (S)-5-(2-(2-(3,5-difluorophenyl)-1-(2-(2-(hydroxymethyl)-4-(trifluoromethyl)-1H-imidazol-1-yl)acetamido)ethyl)pyridin-3-yl)-2-fluorobenzamide] | > 53200 nM | 3%
NC(=O)c1cc(-c2cccnc2[C@H](Cc2cc(F)cc(F)c2)NC(=O)Cn2cnc3cc(Cl)c(Cl)cc32)ccc1F [Example 518, (S)-5-(2-(1-(2-(5,6-dichloro-1H-benzo[d]imidazol-1-yl)acetamido)-2-(3,5-difluorophenyl)ethyl)pyridin-3-yl)-2-fluorobenzamide] | 10500 nM | 11%
N#Cc1cc(-c2cccnc2[C@H](Cc2cc(F)cc(F)c2)NC(=O)Cc2c[nH]c3ccc(F)cc23)ccn1 [Example 377, (S)—N-(1-(2′-cyano-3,4′-bipyridin-2-yl)-2-(3,5-difluorophenyl)ethyl)-2-(5-fluoro-1H-indol-3-yl)acetamide] | 18600 nM | 22%
O=C(Cc1c[nH]c2ccc(O)nc12)N[C@@H](Cc1cc(F)cc(F)c1)c1nccnc1-c1ccc(Cl)cc1 (stereo in doubt) [Example 476, N-(1-(3-(4-chlorophenyl)pyrazin-2-yl)-2-(3,5-difluorophenyl)ethyl)-2-(5-hydroxy-1H-pyrrolo[3,2-b]pyridin-3-yl)acetamide] | 53200 nM | 30%
NC(=O)c1cc(-c2cccnc2[C@H](Cc2cc(F)cc(F)c2)NC(=O)Cn2nc(C(F)(F)F)c3c2CCC3)ccc1F [Example 134, (S)-5-(2-(2-(3,5-difluorophenyl)-1-(2-(3-(trifluoromethyl)-5,6-dihydrocyclopenta[c]pyrazol-1(4H)-yl)acetamido)ethyl)pyridin-3-yl)-2-fluorobenzamide] | – | 98%
